According to ChEMBL document CHEMBL4393689, “Discovery of fluorescent coumarin-benzo[b]thiophene 1, 1-dioxide conjugates as mitochondria-targeting antitumor STAT3 inhibitors” (Eur J Med Chem, 2019):
Activity calls are given as the source filed them. The rule behind the calls is not given here.

Columns and labels:
MDA-MB-231 [1] = assay: Induction of apoptosis in human MDA-MB-231 cells assessed as viable cells at 1 uM incubated for 24 hrs by annexinV-FITC and propidium iodide staining based flow cytometric analysis (reference value: 95.1%); assay type: functional; conditions: MDA-MB-231, 24 h, read-out: Activity
MDA-MB-231 [2] = assay: Induction of apoptosis in human MDA-MB-231 cells assessed as early apoptotic cells at 1 uM incubated for 24 hrs by annexinV-FITC and propidium iodide staining based flow cytometric analysis (reference value: 3.2%); assay type: functional
MDA-MB-231 [3] = assay: Antiproliferative activity against human MDA-MB-231 cells assessed as reduction in cell viability incubated for 48 hrs by MTT assay; assay type: functional, cell-based; conditions: MDA-MB-231, 48 h
HCT-116 = assay: Antiproliferative activity against human HCT116 cells assessed as reduction in cell viability incubated for 48 hrs by MTT assay; assay type: functional, cell-based; conditions: HCT-116, 48 h
MCF7 = assay: Antiproliferative activity against human MCF7 cells assessed as reduction in cell viability incubated for 48 hrs by MTT assay; assay type: functional, cell-based; conditions: MCF7, 48 h
MDA-MB-231 [4] = assay: Potency index, ratio of IC50 of BTP to ratio of IC50 of compound for antiproliferative activity against human MDA-MB-231 cells assessed as reduction in cell viability incubated for 48 hrs by MTT assay; assay type: functional
HepG2 = assay: Potency index, ratio of IC50 of BTP to ratio of IC50 of compound for antiproliferative activity against human HepG2 cells assessed as reduction in cell viability incubated for 48 hrs by MTT assay; assay type: functional
MCF-10A = assay: Cytotoxicity against human MCF10A cells assessed as reduction in cell viability incubated for 48 hrs by MTT assay; assay type: cell-based
L02 = assay: Cytotoxicity against human LO2 cells assessed as reduction in cell viability incubated for 48 hrs by MTT assay; assay type: cell-based; conditions: L02, 48 h
[5] = Selectivity index, ratio of IC50 for human L02 cells to IC50 for human HepG2 cells; assay type: toxicity; conditions: L02 cells versus HepG2 cells, read-out: Ratio IC50
MDA-MB-231 [6] = assay: Inhibition of colony formation in human MDA-MB-231 cells assessed as reduction in cell proliferation at 1 uM treated for 24 hrs and measured after 10 to 14 days by crystal violet staining based assay; assay type: functional
MDA-MB-231 [7] = assay: Induction of apoptosis in human MDA-MB-231 cells assessed as necrotic cells at 1 uM incubated for 24 hrs by annexinV-FITC and propidium iodide staining based flow cytometric analysis (reference value: 0.8%); assay type: functional
MDA-MB-231 [8] = assay: Induction of apoptosis in human MDA-MB-231 cells assessed as late apoptotic cells at 2 uM incubated for 24 hrs by annexinV-FITC and propidium iodide staining based flow cytometric analysis (reference value: 1.0%); assay type: functional
MDA-MB-231 [9] = assay: Induction of apoptosis in human MDA-MB-231 cells assessed as necrotic cells at 2 uM incubated for 24 hrs by annexinV-FITC and propidium iodide staining based flow cytometric analysis (reference value: 0.8%); assay type: functional
MDA-MB-231 [10] = assay: Induction of apoptosis in human MDA-MB-231 cells assessed as viable cells at 4 uM incubated for 24 hrs by annexinV-FITC and propidium iodide staining based flow cytometric analysis (reference value: 95.1%); assay type: functional; conditions: MDA-MB-231, 24 h, read-out: Activity
MDA-MB-231 [11] = assay: Induction of apoptosis in human MDA-MB-231 cells assessed as early apoptotic cells at 4 uM incubated for 24 hrs by annexinV-FITC and propidium iodide staining based flow cytometric analysis (reference value: 3.2%); assay type: functional
MDA-MB-231 [12] = assay: Induction of apoptosis in human MDA-MB-231 cells assessed as late apoptotic cells at 4 uM incubated for 24 hrs by annexinV-FITC and propidium iodide staining based flow cytometric analysis (reference value: 1.0%); assay type: functional
MDA-MB-231 [13] = assay: Induction of apoptosis in human MDA-MB-231 cells assessed as necrotic cells at 4 uM incubated for 24 hrs by annexinV-FITC and propidium iodide staining based flow cytometric analysis (reference value: 0.8%); assay type: functional
MDA-MB-231 [14] = assay: Induction of apoptosis in human MDA-MB-231 cells assessed as increase in cleaved caspase-9 levels at 1 to 4 uM incubated for 24 hrs by Western blot analysis; assay type: functional, cell-based
MDA-MB-231 [15] = assay: Induction of apoptosis in human MDA-MB-231 cells assessed as increase in cleaved PARP levels at 1 to 4 uM incubated for 24 hrs by Western blot analysis; assay type: functional, cell-based
MDA-MB-231 [16] = assay: Induction of mitochondrial membrane depolarization in human MDA-MB-231 cells assessed as increase in green fluorescence incubated for 24 hrs JC-1 staining based flow cytometric analysis; assay type: functional, cell-based
MDA-MB-231 [17] = assay: Induction ROS accumulation in human MDA-MB-231 cells after 24 hrs by DCFH-DA staining-based flow cytometric analysis; assay type: functional, cell-based
MDA-MB-231 [18] = assay: Effect on total STAT3 expression in human MDA-MB-231 cells at 1 to 4 uM incubated for 24 hrs by Western blot analysis; assay type: ADME, cell-based; conditions: mda-mb-231, 24 h
[19] = target: Proto-oncogene tyrosine-protein kinase Src (Homo sapiens) (UniProt P12931); assay: Inhibition of Src in human MDA-MB-231 cells assessed as reduction in Src phosphorylation at 1 to 4 uM incubated for 24 hrs by Western blot analysis; assay type: cell-based
[20] = target: Mitogen-activated protein kinase; ERK1/ERK2 (Homo sapiens) (UniProt P27361+P28482); assay: Inhibition of ERK 1/2 in human MDA-MB-231 cells assessed as reduction in ERK 1/2 phosphorylation at 1 to 4 uM incubated for 24 hrs by Western blot analysis; assay type: cell-based
[21] = target: Signal transducer and activator of transcription 3 (Homo sapiens) (UniProt P40763); assay: Inhibition of STAT3 in human MDA-MB-231 cells assessed as decrease in Bcl2 protein expression incubated for 24 hrs by Western blot analysis; assay type: cell-based
4T1 [22] = assay: Antitumor activity against mouse 4T1 cells implanted in BALB/c mouse assessed as reduction in tumor volume at 20 mg/kg, ip for 14 days; assay type: functional; conditions: 4T1, ip, 336 h
4T1 [23] = assay: Antitumor activity against mouse 4T1 cells implanted in BALB/c mouse assessed as reduction in tumor weight at 20 mg/kg, ip for 14 days; assay type: functional; conditions: 4T1, ip, 336 h
MDA-MB-231 [24] = assay: Inhibition of colony formation in human MDA-MB-231 cells at 2 uM treated for 24 hrs and measured after 10 to 14 days by crystal violet staining based assay; assay type: functional
4T1 [25] = assay: Reduction in STAT3 phosphorylation at Tyr705 residue in mouse 4T1 cells implanted in BALB/c mouse at 10 to 20 mg/kg, ip for 14 days by Western blot analysis; assay type: functional, organism-based

Chain of Mitogen-activated protein kinase; ERK1/ERK2 (Homo sapiens) (P27361 whole entry, looked up): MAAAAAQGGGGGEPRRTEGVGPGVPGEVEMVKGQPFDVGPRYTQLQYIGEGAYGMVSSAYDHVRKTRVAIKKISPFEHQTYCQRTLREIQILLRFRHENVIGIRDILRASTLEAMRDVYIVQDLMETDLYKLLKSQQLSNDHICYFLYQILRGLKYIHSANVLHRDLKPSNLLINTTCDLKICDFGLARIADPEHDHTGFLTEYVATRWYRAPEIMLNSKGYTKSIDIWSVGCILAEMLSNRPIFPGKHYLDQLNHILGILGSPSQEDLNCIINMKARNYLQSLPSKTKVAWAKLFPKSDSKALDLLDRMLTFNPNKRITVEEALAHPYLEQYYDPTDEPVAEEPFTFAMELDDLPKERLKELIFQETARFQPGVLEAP
Chain of Mitogen-activated protein kinase; ERK1/ERK2 (Homo sapiens) (P28482 whole entry, looked up): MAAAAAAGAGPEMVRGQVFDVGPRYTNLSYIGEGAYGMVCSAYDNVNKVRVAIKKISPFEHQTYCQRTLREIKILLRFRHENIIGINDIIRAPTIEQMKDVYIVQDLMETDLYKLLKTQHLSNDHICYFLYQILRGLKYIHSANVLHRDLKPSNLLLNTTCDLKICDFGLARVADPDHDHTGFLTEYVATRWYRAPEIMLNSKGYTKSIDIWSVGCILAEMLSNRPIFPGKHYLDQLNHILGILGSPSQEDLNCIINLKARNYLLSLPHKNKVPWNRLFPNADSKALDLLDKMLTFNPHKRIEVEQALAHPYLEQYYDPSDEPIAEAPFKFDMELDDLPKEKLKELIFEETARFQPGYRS
Chain of Signal transducer and activator of transcription 3 (Homo sapiens) (P40763 whole entry): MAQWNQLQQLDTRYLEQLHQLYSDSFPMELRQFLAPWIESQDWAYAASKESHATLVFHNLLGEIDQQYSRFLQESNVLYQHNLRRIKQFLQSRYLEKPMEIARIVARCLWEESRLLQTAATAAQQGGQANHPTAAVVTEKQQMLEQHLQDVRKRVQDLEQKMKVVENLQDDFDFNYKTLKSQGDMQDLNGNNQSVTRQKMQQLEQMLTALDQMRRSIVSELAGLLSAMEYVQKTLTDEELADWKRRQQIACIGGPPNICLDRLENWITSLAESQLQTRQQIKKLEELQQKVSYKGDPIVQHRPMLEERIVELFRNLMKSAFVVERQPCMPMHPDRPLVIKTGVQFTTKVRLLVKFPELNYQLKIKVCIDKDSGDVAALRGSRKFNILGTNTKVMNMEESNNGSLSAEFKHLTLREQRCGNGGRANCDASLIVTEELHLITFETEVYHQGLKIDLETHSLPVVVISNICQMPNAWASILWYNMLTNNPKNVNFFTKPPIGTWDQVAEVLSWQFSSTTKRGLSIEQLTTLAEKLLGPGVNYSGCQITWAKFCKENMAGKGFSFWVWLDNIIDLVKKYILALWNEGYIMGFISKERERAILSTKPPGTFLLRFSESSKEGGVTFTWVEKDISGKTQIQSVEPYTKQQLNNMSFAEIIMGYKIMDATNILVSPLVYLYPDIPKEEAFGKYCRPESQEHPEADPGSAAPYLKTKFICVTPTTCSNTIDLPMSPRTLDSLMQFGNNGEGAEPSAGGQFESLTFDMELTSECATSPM
Chain of Proto-oncogene tyrosine-protein kinase Src (Homo sapiens) (P12931 2-536 limits assumed): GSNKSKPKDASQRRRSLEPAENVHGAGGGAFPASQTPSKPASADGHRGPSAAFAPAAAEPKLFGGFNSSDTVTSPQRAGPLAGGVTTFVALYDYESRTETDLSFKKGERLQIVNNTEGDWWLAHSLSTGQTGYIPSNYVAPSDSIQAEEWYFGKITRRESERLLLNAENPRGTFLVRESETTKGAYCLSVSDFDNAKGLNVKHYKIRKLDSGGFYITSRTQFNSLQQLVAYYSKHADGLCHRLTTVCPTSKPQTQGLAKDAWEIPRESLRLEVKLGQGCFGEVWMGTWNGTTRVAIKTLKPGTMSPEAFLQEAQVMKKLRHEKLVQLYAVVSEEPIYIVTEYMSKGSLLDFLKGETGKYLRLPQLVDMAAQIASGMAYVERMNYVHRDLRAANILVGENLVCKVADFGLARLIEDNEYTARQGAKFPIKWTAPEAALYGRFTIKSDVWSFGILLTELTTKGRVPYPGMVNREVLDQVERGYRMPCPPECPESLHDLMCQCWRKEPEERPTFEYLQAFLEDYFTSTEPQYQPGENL

IC50 (MDA-MB-231 [3]): 1.43 µM | IC50 (HCT-116): 1.89 µM | IC50 (MCF7): 3.33 µM | inhibition [19]: inactive | inhibition [20]: inactive | inhibition [21]: Dose-dependent effect
Compound: CCN(CC)c1ccc2cc(C(=O)N3CCN(C(=O)C4=Cc5c(Br)cccc5S4(=O)=O)CC3)c(=O)oc2c1
viability at 1 µM (MDA-MB-231 [1]): 92% | Activity (MDA-MB-231 [2]): 5.4% | Ratio IC50 (MDA-MB-231 [4]): 4.6 - 19 | Ratio IC50 (HepG2): 4.6 - 19 | IC50 (MCF-10A): 14.6 µM | IC50 (L02): 35.6 µM | selectivity ratio [5]: 12.4 | inhibition (MDA-MB-231 [6]): Active | Activity (MDA-MB-231 [7]): 1.3% | Activity (MDA-MB-231 [8]): 1.8% | Activity (MDA-MB-231 [9]): 1.6% | viability at 4 µM (MDA-MB-231 [10]): 77.5% | Activity (MDA-MB-231 [11]): 15.6% | Activity (MDA-MB-231 [12]): 4.8% | Activity (MDA-MB-231 [13]): 2.1% | Activity (MDA-MB-231 [14]): Active | Activity (MDA-MB-231 [15]): Active | Activity (MDA-MB-231 [16]): Dose-dependent effect | Activity (MDA-MB-231 [17]): Dose-dependent effect | Activity (MDA-MB-231 [18]): Non-Toxic | inhibition in vivo at 20 mg/kg (4T1 [22]): 61.2% | inhibition in vivo at 20 mg/kg (4T1 [23]): 56.9% | inhibition at 2 µM (MDA-MB-231 [24]): 100% | inhibition (4T1 [25]): Active
